Measurements taken from patent US10842807B2, “Methods of treating neurodegenerative disorders comprising DNA methyltransferase inhibitors” (Washington University, priority 2016, dated 2020).

Tested on: Htt-72Q-expressing primary cortical neurons
Experiment: Cell death by nuclear morphology (Hoechst 33342)
Assay type: cell-based, mouse
Settings: vs. Htt-72Q (0 μM)
Experimental: Mouse primary cortical and striatal neurons from embryonic day (E) 15.5 Swiss Webster mouse fetuses (Taconic) were first plated in the minimal essential medium (MEM) containing 10% FBS, 0.45% glucose, 1 mM sodium pyruvate, 2 mM glutamine, 20 U/ml penicillin and 20 μg/ml streptomycin, for 3 h and then maintained in serum-free Neurobasal medium (Life Technologies) containing NeuroCult™ SM1 neuronal supplement ([…] Technologies), 0.5 mM glutamine and 25 μM glutamate for the first 3 d in a humidified incubator (37° C. in 5% CO2). Half of the medium was replaced with Neurobasal medium with SM1 and 0.5 mM glutamine every 3 days. Primary cortical neurons plated on 96-well flat clear bottom black plates (Corning #3904) at 4×10^4 cells/well were infected with Htt exon1 expression lentivirus (Htt-25Q or Htt-72Q) or control empty vector lentivirus at 5 days in vitro (DIV 5). Primary striatal neurons plated on 96-well plates at 1×10^5 cells/well were infected with Htt exon1 expression lentivirus at DIV 4. Viral copy number was adjusted for transduction of neurons on the basis of titer measured using the Lenti-X qRT-PCR titration kit (Clontech), and equal numbers of viral particles of Htt-25Q and Htt-72Q expressing lentiviruses were used for transduction. For the experiments to test effects of DNMT inhibitors, neurons were treated with inhibitors six hours after Htt lentiviral infection. […]

Nc1ncn([C@H]2C[C@H](O)[C@@H](CO)O2)c(=O)n1 [decitabine, 5-aza-2′-deoxycytidine]
Htt-72Q induced cell death (condensed or fragmented nuclei): blocked Htt-72Q induced cell death
